Legend:
[1] = tested on: glioma stem cells (GSC2-GFP, U87MG SLC-GFP) co-cultured with normal human astrocytes (HA); assay: Flow cytometry of co-culture model (GSC2-GFP or U87MG SLC-GFP + HA-RFP); type: cell-based; conditions: 24 hours, 1-30 μM; compared with normal human astrocytes
Description: 6-well and 96-well cell culture plates were pre-coated with 100 μg/mL poly-lysine at 37° C. overnight, followed by washing twice with saline and allowing to air-dry. GSC2-GFP cells stably expressing green fluorescence and HA cells stably expressing red fluorescence were digested into single cell, and resuspended in fresh culture medium, counted and diluted to 5×10^4 cells/mL. Then, the two types of cells were mixed well at a ratio of 1:1, divided into five tubes. Clofoctol were added in each tube and mixed well, so that the concentrations of clofoctol were 0 μM, 1 μM, 3 μM, 10 μM, 30 μM, respectively. The resulting mixtures were added to a 6-well cell culture plate (2 mL) and a 96-well cell culture plate (100 μL, 3 replicate wells per group) respectively for 24 hours, before the MTS assay was used to detect the cell activity of each treatment group in the 96-well cell culture plate. The cells in the 6-well cell culture plates were collected separately, washed twice with PBS, and resuspended with 100 μL respectively. The proportion of GSC2-GFP and HA-RFP in the viable cells of each treatment group was analyzed by flow cytometry. Considering the changes in cell activity after medicament treatment of the co-culture model, the relative cell viability of each cell component in the co-culture model was statistically analyzed. […]

GSC2 subcutaneous tumors = assay: Subcutaneous GSC2 xenograft at armpits of nude mice; type: in vivo, Balb/C nude mice; conditions: 20 mg/kg, intraperitoneal injection, 11 days
Description: Subcutaneous tumorigenesis at armpits of nude mice: after centrifugation and digestion, GSC2 single cell re-suspended in PBS was subcutaneously inoculated into the armpits of 15 Balb/C nude mice of 5 weeks old. The inoculation number of the cells was 10^5 cells/mouse. The tumor size of nude mice was recorded (tumor size in nude mice=length*width^2/2). When the subcutaneous tumors in nude mice reached about 100 mm^3, they were divided into DMSO group and clofoctol administration group. The dose administered was 20 mg/kg, the mice were administered by intraperitoneal injection for a period of 11 days. The changes in tumor size and the body weight in two groups of nude mice were recorded.

[2] = tested on: glioma stem cells (U87MG SLC, U251 SLC, GSC2, GSC5); assay: Detection of cell viability by MTS assay; type: cell-based, human
Description: “MTS assay”: a colorimetric method for determining the number of viable cells in proliferation assays and cytotoxicity assays. MTS is a novel tetrazolium compound. PMS is an electron coupling reagent with enhanced chemical stability, which forms a stable solution when mixed with MTS. MTS can be reduced by cellular organisms to generate a colored formazan product that is soluble in culture media. This conversion is thought to be carried out by NAD(P)H-dependent dehydrogenase enzymes in metabolically active cells. The amount of the formazan product, which is quantified at 490 nm, is proportional to the number of viable cells in culture.
“The relative cell viability”: after the detection of the value of absorbance by above MTS assay, the relative cell viability is calculated based on the value of absorbance (A). […]
(2) In order to detect the effect of clofoctol on cell viability of glioma stem cells, the experiment was carried out using a 96-well cell culture plate which is coated with 100 μg/mL poly-lysine overnight, wherein the plate was washed twice next day with saline, and allowed to dry until use. The cells were digested, resuspended as a single cell suspension, counted and seeded on a 96-well cell culture plate (U87MG SLC (5000 cells/well), U251 SLC (10000 cells/well), GSC2 (10000 cells/well), GSC5 (10000 cells/well)), allowed to grow overnight. […]

GSC2 [3] = assay: Annexin V/PI counterstaining for the detection of apoptosis; type: cell-based, human; conditions: GSC2, 1-30 μM, 12 hours or 24 hours
Description: (1) GSC2 were treated with clofoctol at the concentrations of 1 μM, 3 μM, 10 μM, 30 μM for 12 hours or 24 hours;
(2) the cells were collected and washed twice with PBS;
(3) the cells were resuspended with 50 μL 1*binding buffer with the cell density of about 1*10^6 cells/mL;
(4) 2.5 μL FITC Annexin V and 2.5 μL PI were added;
(5) incubating for 15 min at room temperature in the darkness;
(6) 200 μL of 1*binding buffer was added to the system, and the cells in each treatment tube was passed through the cell strainer;
(7) flow cytometry analysis;
The Annexin V/PI counterstaining kit used was purchased from BD pharmingen with the product lot number 556547.

GSC5 = assay: Limited dilution experiment (self-renewal); type: cell-based, human; conditions: GSC5, 1 μM, 3 μM and 10 μM, 2 weeks
Description: (1) The cells of GSC5 tumorspheres in suspension culture were collected into a 15 mL centrifuge tube, 0.5 mL of ACCUTASE enzyme (purchased from sigma) was added, and the cells were digested at 37° C. for 5 minutes. Then the cells were pipetted to single cell and the supernatant was removed after centrifugation;
(2) Fresh Neurobasal culture medium (purchased from gibco) was added. A portion of the cells were taken for trypan blue staining, followed by cell counting.
(3) After calculating the desired volume of cell culture medium, the cell concentration gradient of 200, 100, 50, 25 cells/well was set, and 10 replicate wells for each concentration were set. The DMSO control group and medicament treatment group with 0 μM, 1 μM, 3 μM and 10 μM of clofoctol were set.
(4) The cells were seeded in a 96-well plate at 100 and cultured in an incubator at 37° C., 5% CO2, 2 weeks later the proportion of the well without tumorsphere was counted;

[4] = tested on: glioma stem cells (GSC5; FIG. 6 legend: GSC2); assay: Recovery assay (MTS after removal of medicament); type: cell-based, human; conditions: 24 or 48 hours treatment, then 48 hours in fresh medium
Description: (1) The 96-well cell culture plate was coated with 100 μg/mL poly-lysine.
(2) GSC5 was digested into single cell using ACCUTASE enzyme, resuspended in fresh Neurobasal culture medium, and the cells were then plated on the pre-coated 96-well cell culture plates overnight;
(3) clofoctol was added, the concentration of which were 0.03 μM, 0.1 μM, 0.3 μM, 1 μM, 3 μM, 10 μM and 30 μM, 9 replicate wells for each concentration;
(4) after 24 hours of treatment, 20 μL MTS/PMS mixed reagent was added to 3 replicate wells of each concentration to measure the cell activity. The medicament-containing medium in the other 6 replicate wells was removed, fresh medium was added to 3 of the 6 replicate wells, and medium containing the same concentration of clofoctol was added to the rest 3 replicate wells;
(5) after 48 hours of incubation, cell activity was detected by MTS assay.
After 48 hours of medicament treatment, the cells were restored for 48 hours and then detected, the steps are as above.

U87MG SLC-GFP xenograft = assay: Administration to zebrafish glioma xenograft model; type: in vivo; conditions: 10 μM in hatching solution, 48 hours
Description: 3000 green-fluorescent-labeled U87MG SLC-GFP were injected into the yolk sac of the 48-hour zebrafish embryo. After 48 hours of natural growth, fluorescence microscopy was used to detect the tumorigenesis in zebrafish. And then clofoctol at a concentration of 10 μM was added to the zebrafish hatching solution. After 48 hours of medicament treatment, the green fluorescence intensity of zebrafish yolk sac was detected by fluorescence microscopy to determine the in vivo inhibitory effect of clofoctol on tumors in zebrafish xenograft models.

GSC2 [5] = assay: In situ tumorigenesis in nude mice of pretreated GSC2; type: in vivo, Balb/C nude mice
Description: The cells were collected after 24 hours of pre-treatment with clofoctol at a concentration of 30 μM, washed twice with PBS, and a portion of the cells were subjected to trypan blue staining and cell counting. The cells were injected in situ into the intracranial striatum of Balb/C nude mice aged 5-7 weeks, at 10^5 cells/mouse, 5 mice each group, and a DMSO control group was set.

GSC2 tumorspheres = assay: Experiment of tumorsphere formation; type: cell-based, human
Description: After coating the 96-well cell culture dish, 100 μL single cell suspension containing 5000 GSC2 was added to each well. After 4 days of natural growth, the original medium was removed, and 100 μL fresh culture containing various concentrations of clofoctol was added to each well. The medicament concentrations were 0.03 μM, 0.1 μM, 0.3 μM, 1 μM, 3 μM, 10 μM and 30 μM, respectively. After 48 hours of medicament treatment, the morphological changes of the tumorspheres in each treatment group were observed under the microscope, and the number of tumorspheres in each treatment group was also counted.

IC50 ([2]; Homo sapiens, four glioma stem cell strains (U87MG SLC, U251 SLC, GSC2, GSC5), after 48 hours treatment): 7.65 to 10.5 µM
Compound: CC(C)(C)CC(C)(C)c1ccc(O)c(Cc2ccc(Cl)cc2Cl)c1 [clofoctol, 2-[(2,4-dichlorophenyl)methyl]-4-(2,4,4-trimethylpentan-2-yl)phenol]
relative cell viability of each cell component in the co-culture model [1]: specifically inhibits the cell activity of glioma stem cells in the co-culture model | side effects (body weight) (GSC2 subcutaneous tumors): side effects were small | tumor growth (tumor size) (GSC2 subcutaneous tumors): significantly inhibits tumor growth | cell activity of glioma stem cells (MTS, FIG. 1) ([2]; 48 hours, 0.3-30 μM, compared with glioma cells and normal human cell lines): specifically inhibits the cell activity of glioma stem cells | apoptosis in glioma stem cells (GSC2 [3]): can induce apoptosis in glioma stem cells | formation of glioma stem cell clones (self-renewal ability) (GSC5): significantly inhibits the formation of glioma stem cell clones | reversibility of the effect on glioma stem cells after removal of medicament [4]: irreversible to some extent | in vivo tumor growth (green fluorescence intensity of yolk sac) (U87MG SLC-GFP xenograft): significantly inhibits the in vivo tumor growth | in situ tumorigenesis (mice with tumor / mice injected) (GSC2 [5]; GSC2 pretreated 24 hours at 30 μM, 1 * 10^5 cells/mouse, intracranial striatum): 0/5 | ability of in situ tumorigenesis in nude mice (GSC2 [5]; pretreatment of GSC2 at 30 μM for 24 hours): significantly inhibits its ability of in situ tumorigenesis in nude mice | morphology of tumorspheres at low concentrations (GSC2 tumorspheres; GSC2, 0.03 μM, 0.1 μM, 48 hours): grow protuberances and exhibit clear differentiation-like characteristics | morphology of tumorspheres at high concentrations (GSC2 tumorspheres; GSC2, 10 μM, 30 μM, 48 hours): caused the death of marginal cells of tumorspheres | size and number of tumorspheres (GSC2 tumorspheres; GSC2, 48 hours, 0.03-30 μM): significantly reduce the size and number of tumorspheres

Reference: patent US10987318B2, “Application of clofoctol for manufacturing pharmaceutical product for treating human neuroglioma” (INSTITUTE OF BASIC MEDICAL SCIENCES, CHINESE ACADEMY OF …, priority 2016, dated 2021)
